Source: PubChem BioAssay AID1918953 (Molecular Pharmacology Branch, DTP, NCI, 2023)
Where “and” joins values, the source holds several entries; their conditions need not be identical. Identical values can stand only once.

System: MDA-MB-231 complex spheroid viability
Test: Anticancer human tumor MDA-MB-231/ATCC cell line growth inhibition;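 also: drug exposure lasted 7 days starting on day 3 of spheroid growth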
Settings: for viability, T/C: stronger effect = lower value
Excerpt: Multicellular complex tumor spheroid response to LSD1 Inhibitor Iadademstat in combination with a variety of drugs and investigational agents in selected tumor cell lines
The current study was undertaken to assess response to LSD1 inhibitors in combination with standard-of-care drugs and investigational agents in solid tumor complex spheroid models as well as in the K-562 leukemia. Complex spheroids include a stromal component modeled by human endothelial cells (HUVEC) and fibroblasts modeled by human mesenchymal stem cells (MSCs). The concentration ranges selected for each drug and investigational agent were based upon clinically achievable concentrations if the clinical Cmax of the agent was known.
Compounds. The drugs and investigational agents used in this study are listed on Table 1. All of the agents used, including staurosporine (NSC755774) and gemcitabine (NSC613327), were obtained from the Developmental Therapeutics Program, NCI. FDA-approved anticancer drugs are available from the NCI at http://dtp.nci.nih.gov/branches/dscb/oncology_drugset_explanation.html. Drugs and investigational agents were >95% pure by proton nuclear magnetic resonance (NMR) and liquid chromatography/mass spectrometry (LC/MS). Stock solutions were prepared at 400x in DMSO, stored at -70 degrees C, and diluted in fresh medium prior to their use. The final concentration of DMSO in cell culture wells never exceeded 0.25% (v/v). The FDA-approved anticancer drug set is available from the Developmental Therapeutics Program at https://dtp.cancer.gov/organization/dscb/obtaining/available_plates.htm. All drugs and investigational agents were tested over a range starting from a high concentration at or near the clinical Cmax and decreasing in half-log increments. If the clinical Cmax for an agent had not been determined, the highest concentration tested was 10 microM.
Cell Lines. The patient-derived cancer cell (PDC) lines: 292921-168-R-J2-PDC, K24384-001-R-PDC, and 521955-158-R2-J5-PDC pancreatic carcinomas, 556581-035-R-J1 ovarian carcinoma, 324938-238-R-J1-PDC, 855422-203-R-J1-PDC and 883617-216-R-J1-PDC urothelial bladder carcinomas, 743489-274-T-PDC renal cell carcinoma, 138582-R-J1 Merkel cell tumor, K60290-347-R-J1 and K57222-313-R-J1-PDC glioblastomas, 653999-131-R-J2-PDC, LG0703-F948-PDC, and 349418-098-R-PDC non-small cell lung carcinomas, 885512-296-R-J2-PDC, 171881-019-R-J1-PDC breast carcinomas and 186277-243-T-J2-PDC and 233499-124-R-J2-PDC colon carcinomas were obtained from the NCI Patient-Derived Models Repository (PDMR, https://pdmr.cancer.gov). The established cell lines NCI/ADR-RES (RRID:CVCL_14520 and OVCAR-5 (RRID:CVCL_1628) ovarian carcinomas, 786-O (RRID:CVCL_1051) and A498 (RRID:CVCL_A498) renal cell carcinoma, NCI-H211 (ATCC, cat. CRL-5824; RRID:CVCL_1529), NCI-H196 (ATCC, cat. CRL-5823, RRID:CVCL_1509), SW 1271 (ATCC, cat. CRL-2177, RRID:CVCL_1716) and NCI-H1876 (ATCC, cat. CRL-5902, RRID:CVCL_1503) small cell lung carcinomas, MDA-MB-231 (RRID:CVCL_0062) and MDA-MB-468 (RRID:CVCL_0419)breast carcinomas (10-12). Pooled donor human umbilical vein endothelial cells (HUVEC, Lonza, cat. CC-2519) and human mesenchymal stem cells (hMSC, Lonza, cat. PT-2501) were purchased from Lonza (Walkersville, MD).
Cell Culture. All cells were maintained in an incubator at 37 degrees C and 5% CO2 with 95% humidity. The PDC lines were cultured according to standard operating procedures established by the NCI PDMR (https://pdmr.cancer.gov). Briefly all PDCs were thawed and cultured in Matrigel-coated flasks prepared with a working solution of 1X Ham's F-12 nutrient mix, without supplementation (Invitrogen, Waltham, MA, cat. 11765054), 100 U/mL penicillin-streptomycin (Invitrogen, cat. 15140122), and 2.5% Matrigel (Corning Inc., Corning, NY, cat. 354248) for the first three passages. […]

[1] = curve of first compound, second compound 0.1 µM
[2] = curve of first compound, second compound 0.316 µM
[3] = curve of first compound, second compound 1 µM
[4] = curve of first compound, second compound 3.16 µM
[5] = curve of first compound, second compound 10 µM

O=C(c1cc(Cc2n[nH]c(=O)c3ccccc23)ccc1F)N1CCN(C(=O)C2CC2)CC1
viability, T/C (compound 0.0316 µM): 92.4% and 88.5%
viability, T/C (compound 0.1 µM): 97.9% and 79.2%
viability, T/C (compound 0.316 µM): 85.6% and 79.3%
viability, T/C (compound 1 µM): 72.1% and 69.9%
viability, T/C (compound 3.16 µM): 68.6% and 53.2%
viability, T/C (compound 10 µM): 56.6% and 32.6%
IC50 (curve of compound): > 10000 nM and 3920 nM

CC[C@@]1(O)C(=O)OCc2c1cc1n(c2=O)Cc2cc3c(CN(C)C)c(O)ccc3nc2-1 + NC1CCC(NC2CC2c2ccccc2)CC1
IC50 [1]: 2.37 nM
IC50 [2]: 2.18 nM
IC50 [3]: 2.28 nM
IC50 [4]: 1.46 nM
IC50 [5]: 0.603 nM
viability, T/C (second compound 0.1 µM, first compound 0.000316 µM): 91.6%
viability, T/C (second compound 0.1 µM, first compound 0.001 µM): 70.6%
viability, T/C (second compound 0.1 µM, first compound 0.00316 µM): 40.3%
viability, T/C (second compound 0.1 µM, first compound 0.01 µM): 29.1%
viability, T/C (second compound 0.1 µM, first compound 0.0316 µM): 22.5%
viability, T/C (second compound 0.1 µM, first compound 0.1 µM): 13%
viability, T/C (second compound 0.316 µM, first compound 0.000316 µM): 87.6%
viability, T/C (second compound 0.316 µM, first compound 0.001 µM): 66.3%
viability, T/C (second compound 0.316 µM, first compound 0.00316 µM): 40%
viability, T/C (second compound 0.316 µM, first compound 0.01 µM): 28.9%
viability, T/C (second compound 0.316 µM, first compound 0.0316 µM): 22.2%
viability, T/C (second compound 0.316 µM, first compound 0.1 µM): 12.4%
viability, T/C (second compound 1 µM, first compound 0.000316 µM): 87.3%
viability, T/C (second compound 1 µM, first compound 0.001 µM): 69.6%
viability, T/C (second compound 1 µM, first compound 0.00316 µM): 38.9%
viability, T/C (second compound 1 µM, first compound 0.01 µM): 29.7%
viability, T/C (second compound 1 µM, first compound 0.0316 µM): 22.4%
viability, T/C (second compound 1 µM, first compound 0.1 µM): 13.2%
viability, T/C (second compound 3.16 µM, first compound 0.000316 µM): 74.4%
viability, T/C (second compound 3.16 µM, first compound 0.001 µM): 56.8%
viability, T/C (second compound 3.16 µM, first compound 0.00316 µM): 36.5%
viability, T/C (second compound 3.16 µM, first compound 0.01 µM): 28.9%
viability, T/C (second compound 3.16 µM, first compound 0.0316 µM): 19.9%
viability, T/C (second compound 3.16 µM, first compound 0.1 µM): 13.2%
viability, T/C (second compound 10 µM, first compound 0.000316 µM): 57.8%
viability, T/C (second compound 10 µM, first compound 0.001 µM): 44.2%
viability, T/C (second compound 10 µM, first compound 0.00316 µM): 31.3%
viability, T/C (second compound 10 µM, first compound 0.01 µM): 23.2%
viability, T/C (second compound 10 µM, first compound 0.0316 µM): 16%
viability, T/C (second compound 10 µM, first compound 0.1 µM): 12.2%

Nc1ncn(C2CC(O)C(CO)S2)c(=O)n1 (configuration not stated) + NC1CCC(NC2CC2c2ccccc2)CC1
IC50 [1]: 19.9 nM
IC50 [2]: 21.2 nM
IC50 [3]: 14.7 nM
IC50 [4]: 8.38 nM
IC50 [5]: 3.2 nM
viability, T/C (second compound 0.1 µM, first compound 0.000949 µM): 94.4%
viability, T/C (second compound 0.1 µM, first compound 0.003 µM): 78.2%
viability, T/C (second compound 0.1 µM, first compound 0.00949 µM): 63%
viability, T/C (second compound 0.1 µM, first compound 0.03 µM): 44.3%
viability, T/C (second compound 0.1 µM, first compound 0.0949 µM): 24.2%
viability, T/C (second compound 0.1 µM, first compound 0.3 µM): 12.3%
viability, T/C (second compound 0.316 µM, first compound 0.000949 µM): 93.2%
viability, T/C (second compound 0.316 µM, first compound 0.003 µM): 77.5%
viability, T/C (second compound 0.316 µM, first compound 0.00949 µM): 65.1%
viability, T/C (second compound 0.316 µM, first compound 0.03 µM): 46.4%
viability, T/C (second compound 0.316 µM, first compound 0.0949 µM): 21.9%
viability, T/C (second compound 0.316 µM, first compound 0.3 µM): 12%
viability, T/C (second compound 1 µM, first compound 0.000949 µM): 95.2%
viability, T/C (second compound 1 µM, first compound 0.003 µM): 77.8%
viability, T/C (second compound 1 µM, first compound 0.00949 µM): 58.5%
viability, T/C (second compound 1 µM, first compound 0.03 µM): 37.7%
viability, T/C (second compound 1 µM, first compound 0.0949 µM): 19.5%
viability, T/C (second compound 1 µM, first compound 0.3 µM): 11.2%
viability, T/C (second compound 3.16 µM, first compound 0.000949 µM): 77.2%
viability, T/C (second compound 3.16 µM, first compound 0.003 µM): 62.6%
viability, T/C (second compound 3.16 µM, first compound 0.00949 µM): 49.9%
viability, T/C (second compound 3.16 µM, first compound 0.03 µM): 32%
viability, T/C (second compound 3.16 µM, first compound 0.0949 µM): 17.9%
viability, T/C (second compound 3.16 µM, first compound 0.3 µM): 12%
viability, T/C (second compound 10 µM, first compound 0.000949 µM): 61.2%
viability, T/C (second compound 10 µM, first compound 0.003 µM): 50.1%
viability, T/C (second compound 10 µM, first compound 0.00949 µM): 37.6%
viability, T/C (second compound 10 µM, first compound 0.03 µM): 23.8%
viability, T/C (second compound 10 µM, first compound 0.0949 µM): 15.9%
viability, T/C (second compound 10 µM, first compound 0.3 µM): 12.6%
